Laboratory results reported in patent publication US12605374B2, “Methods for drug screening and compositions useful for the inhibition of cell proliferation and/or cell survival” (The Brigham and Women's Hospital, Inc., priority 2019, dated 2026).

Legend:
[1] = target: T1, recombinant human Topoisomerase I (Homo sapiens, UniProt P11387); assay: Topoisomerase I and DNA binding gel electrophoresis assay; format: biochemical; conditions: concentrations up to 100 mM (so in the source), versus DMSO
T1 construct: purchased TopoGEN, Inc. TG2005H
T1 sequence (P11387 1-765): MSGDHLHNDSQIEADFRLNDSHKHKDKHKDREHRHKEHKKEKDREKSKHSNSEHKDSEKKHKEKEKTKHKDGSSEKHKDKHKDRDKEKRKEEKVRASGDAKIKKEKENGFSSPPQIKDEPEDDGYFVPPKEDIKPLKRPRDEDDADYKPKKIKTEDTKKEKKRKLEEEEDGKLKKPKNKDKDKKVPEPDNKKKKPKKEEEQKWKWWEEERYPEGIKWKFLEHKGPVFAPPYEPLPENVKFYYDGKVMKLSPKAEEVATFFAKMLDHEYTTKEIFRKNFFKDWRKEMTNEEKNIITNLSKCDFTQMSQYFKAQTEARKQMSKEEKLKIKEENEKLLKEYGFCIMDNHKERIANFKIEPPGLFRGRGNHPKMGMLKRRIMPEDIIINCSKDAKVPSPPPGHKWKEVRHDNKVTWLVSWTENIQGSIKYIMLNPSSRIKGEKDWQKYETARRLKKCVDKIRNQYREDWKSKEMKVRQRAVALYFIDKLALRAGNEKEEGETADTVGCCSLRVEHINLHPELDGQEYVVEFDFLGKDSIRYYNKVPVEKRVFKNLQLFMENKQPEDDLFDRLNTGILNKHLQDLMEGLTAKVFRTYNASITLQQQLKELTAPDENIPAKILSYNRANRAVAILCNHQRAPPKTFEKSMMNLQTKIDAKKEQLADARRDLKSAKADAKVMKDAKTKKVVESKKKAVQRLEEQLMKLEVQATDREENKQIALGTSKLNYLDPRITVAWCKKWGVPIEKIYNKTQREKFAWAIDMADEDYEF
Experimental: FIG. 12: Topoisomerase I and DNA binding assay for DA5. The effect of DA5 on Topoisomerase-mediated DNA unwinding is measured through a gel electrophoresis assay (see Methods).
0.5 ug of pHOT-1 supercoiled DNA (TopoGEN, Inc. TG2030-2) was combined with 2× Topoisomerase I assay buffer (50 mM Tris-HCL (ph7.9), 1 mM EDTA, 1 mM DTT, 20% (v/v) glycerol, 50 mM NaCl), nuclease free water and either DMSO vehicle control, m-AMSA positive control (100-1000 uM; TopoGEN, Inc. […] TG2005H) was added to treatments corresponding to lanes 3-12 with 2 ul of dilution buffer (5 mM Tris-HCL (pH 7.9), 1 mM EDTA, 1 mM DTT, 50% (v/v) glycerol, 500 mM NaCl) added to control treatments lacking enzyme (lanes 2, 13 and 14). Reactions were mixed and incubated at 37° C. for 30 minutes. Reactions were terminated with the addition of 20 ul nuclease free water and 50 ul of 1-butanol (water-saturated) followed by vortex and centrifugation at 13,000 rpm for 1 minute. The lower aqueous phase was removed and added to 50 ul chloroform/isoamyl alcohol (24/1) and 50 ul of 2×STEB buffer (40% (w/v) sucrose, 100 mM Tris-HCL (pH 8), 1 mM EDTA, 0.5 mg/ml bromophenol blue) followed by mixing and centrifugation at 13,000 rpm for 1 minute. […] The gel was stained with ethidium bromide for 15 minutes followed by de-staining in distilled water for 10 minutes. Gels were exposed and images acquired using the iBrightFL1000 gel documentation system (Invitrogen).

zebrafish embryos = assay: Respiration rate analysis (Seahorse XF24 oxygen consumption); format: in vivo; conditions: embryos from 5 hpf, versus DMSO control
Experimental: Analysis of embryonic respiration was performed using a Seahorse XF24 analyzer (Agilent). Embryos at 5 hours post fertilization were arrayed in E3 media at 3 per well in a 24-well standard Seahorse plate using an isolating mesh (as in Stackley et al^72). Each plate contained four replicates of each indicated compound of interest, as well as 4 control wells receiving the equivalent DMSO as contained in the indicated compound solution, and 4 wells with no embryos present to act as a baseline for oxygen content of the media. The sample baseline was read for 5 cycles (3 minute mix, 2 minute wait, 5 minute measure), then compounds were introduced in a single 40-cycle injection phase (3 minute mix, 2 minute wait, 5 minute measure). Measurement data were exported using Seahorse software (Agilent) and averaged over 3 experimental days.

SMILES	effect on Topoisomerase-mediated DNA unwinding (gel electrophoresis) [1]	respiration rate (oxygen consumption rate) (zebrafish embryos)
CC[C@@]1(O)C(=O)OCc2c1cc1n(c2=O)Cc2cc3ccccc3nc2-1 [Camptothecin, reference compound]	dose-dependent effect on the amount of circular DNA present	–
CC[C@@H]1/C=C/C=C/C[C@H](C)[C@H](O)[C@](C)(O)C(=O)[C@H](C)[C@@H](O)[C@H](C)C(=O)[C@H](C)[C@@H](O)[C@H](C)/C=C/C(=O)O[C@H]2[C@@H](C)[C@@H](CC1)O[C@@]1(CC[C@@H](C)[C@@H](C[C@H](C)O)O1)[C@@H]2C [oligomycin A, reference compound]	–	exponential reduction in respiration rate stabilizing at a baseline rate
